Results on one molecule are retold here after PMC10073347 (Nature chemistry, 2023).

The assay addresses T1, SeMet CtdP (Penicillium citrinum, UniProt Z9QVB9HE69).
T1 sequence (Z9QVB9HE69 1-348): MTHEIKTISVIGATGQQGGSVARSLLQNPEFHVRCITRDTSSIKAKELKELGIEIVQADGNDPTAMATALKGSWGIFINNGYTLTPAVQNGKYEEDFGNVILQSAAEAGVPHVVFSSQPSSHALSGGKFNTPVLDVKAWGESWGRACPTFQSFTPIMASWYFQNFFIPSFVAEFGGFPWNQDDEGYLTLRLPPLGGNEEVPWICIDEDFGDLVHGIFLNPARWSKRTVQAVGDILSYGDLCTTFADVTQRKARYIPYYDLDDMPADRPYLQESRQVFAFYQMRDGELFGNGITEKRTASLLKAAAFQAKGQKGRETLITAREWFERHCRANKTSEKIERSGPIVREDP
As to the kind of experiment: X-ray crystal structure, […] Å, SeMet SAD. The class given is binding. The settings on record: bound in all four chains; product 10 in chains A, B, D.

Take `NC(=O)c1ccc[n+]([C@@H]2O[C@H](COP(=O)(O)OP(=O)(O)OC[C@H]3O[C@@H](n4cnc5c(N)ncnc54)[C@H](OP(=O)(O)O)[C@@H]3O)[C@@H](O)[C@H]2O)c1` [NADP^+]: the “X-ray crystal structure, 2.5 Å, SeMet SAD” value is “four chains (A-D) in the asymmetric unit, all in complex with NADP^+”.
